{
  "source": "patent US20250163065A1",
  "about": "“PYRROLOTRIAZINONE COMPOUND, PHARMACEUTICAL COMPOSITION COMPRISING SAME, PREPARATION METHOD THEREFOR, AND USE THEREOF” (SHANGHAITECH UNIVERSITY, priority 2022, published 2025)",
  "key": {"GPR139": {"target": "GPR139 (Homo sapiens (Human), UniProt Q6DWJ6)", "sequence (Q6DWJ6 whole entry, species assumed)": "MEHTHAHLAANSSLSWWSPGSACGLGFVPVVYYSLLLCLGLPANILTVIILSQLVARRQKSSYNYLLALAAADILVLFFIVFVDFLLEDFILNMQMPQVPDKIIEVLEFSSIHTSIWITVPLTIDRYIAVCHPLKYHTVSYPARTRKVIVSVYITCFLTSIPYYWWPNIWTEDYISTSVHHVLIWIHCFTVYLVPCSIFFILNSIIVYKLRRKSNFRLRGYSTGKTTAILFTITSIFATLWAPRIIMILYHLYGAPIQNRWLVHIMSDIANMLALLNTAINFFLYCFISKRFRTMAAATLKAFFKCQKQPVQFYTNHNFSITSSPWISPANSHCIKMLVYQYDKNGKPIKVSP", "experiment": "Agonistic activity on GPR139, calcium flux detection assay (FLIPR) in transfected CHO-K1 cells", "type": "cell-based", "details": "for EC50: calcium flux, CHO-K1 cells transfected with GPR139 plasmid, mean ± standard deviation; for Emax: CHO-K1"}, "BALB/c mice": {"tested_on": "BALB/c mice", "experiment": "Social interaction experiment in BALB/c mice (negative symptoms of schizophrenia)", "type": "in vivo", "details": "for Social time: 10-minute period", "description": "The experimental subjects were 6-week-old male BALB/c wild-type mice, weighing approximately 22 grams, purchased from Shanghai Lingchang Biotechnology Co., Ltd. They were housed in SPF-grade breeding facilities, with 2 mice per cage, under a 12-hour light/dark cycle, with free access to food and water. All behavioral experiments in this project were completed during the light cycle. The experiment adhered to all relevant regulations and guidelines for animal welfare and ethics, and was supervised and inspected by the ethics committee and laboratory animal managers.\nThe length, width, and height of the behavioral box used in this experiment were all 40 cm. During the experiment, 4 mice were tested in 4 behavioral boxes at the same time. In this experiment, Etho Vision XT was used for experimental setup and video recording.\nThe mice were 5 weeks old when purchased. After one week of observation, the experiment was started when they were 6 weeks old and weighed about 22 grams. Before each experiment, the experimental mice were restricted from eating 18 hours in advance. On the day of the experiment, the mice were transferred to the behavioral laboratory to familiarize themselves with the environment 1 hour in advance. Subsequently, they were administered by intraperitoneal injection, and each mouse was returned to its original cage after injection. After 20 minutes, the experimental mice were placed in the behavioral box to acclimate for 10 minutes. Then, a stimulus mouse (from the same batch of BALB/c) was placed in a corner of the behavioral box, away from the experimental mouse. The two mice were allowed to explore freely for 10 minutes while their activity was monitored and recorded by a camera, and the data was archived.\nThe experimental data were analyzed. The social interaction time (including approaching, sniffing, grooming, chasing, attacking, etc.) was calculated for each experimental mouse over a 10-minute period, and the total social time of each mouse across different groups was analyzed by one-way analysis of variance."}, "[1]": {"experiment": "Pharmacokinetics and brain distribution in mice after single intraperitoneal injection", "type": "in vivo, male C57 mice", "details": "mouse, 10 mg/kg intraperitoneal; for Tmax / half-life / Cmax: C57, ip"}, "[2]": {"details": "male, brain tissue, mean n=3, read-out: tmax Brain"}, "[3]": {"details": "male, plasma, mean n=3, read-out: tmax Plasma"}, "[4]": {"details": "male, brain tissue, mean n=3, read-out: T1/2 Brain (converted)"}, "[5]": {"details": "male, plasma, mean n=3, read-out: T1/2 Plasma (converted)"}},
  "note": "Read-outs that look alike come from different tables or passages of the source.",
  "data": [
    {"smiles": "C[C@H](NC(=O)Cn1ncc2cccn2c1=O)c1ccccc1", "note": "[Compound I-4, (S)-2-(4-oxopyrrolo[1,2-d][1,2,4]triazin-3(4H)yl)-N-(1-phenylethyl)acetamide]", "values": [
      {"measurement": "EC50", "setting": "GPR139", "result": "111 ± 4", "unit": "nM"}
    ]},
    {"smiles": "Cc1ccc2cnn(CC(=O)N[C@@H](C)c3ccccc3)c(=O)n12", "note": "[Compound I-14, (S)-2-(6-methyl-4-oxopyrrolo[1,2-d][1,2,4]triazin-3(4H)yl)-N-(1-phenylethyl)acetamide]", "values": [
      {"measurement": "EC50", "setting": "GPR139", "result": "13 ± 2", "unit": "nM"}
    ]},
    {"smiles": "Cc1ccc2cnn(CC(=O)N[C@H](c3ccc(F)cc3)C(C)C)c(=O)n12", "note": "[Compound I-39, (S)—N-(1-(4-fluorophenyl)-2-methylpropyl)-2-(6-methyl-4-oxopyrrolo[1,2-d][1,2,4]triazin-3(4H)yl)acetamide]", "values": [
      {"measurement": "Emax", "setting": "GPR139", "result": 94, "unit": "%"},
      {"measurement": "EC50", "setting": "GPR139", "result": 26, "unit": "nM"}
    ]},
    {"smiles": "C[C@H](NC(=O)Cn1nnc2ccccc2c1=O)c1ccc(OC(F)(F)F)cc1", "note": "[TAK-041, reference compound]", "values": [
      {"measurement": "Social time", "setting": "BALB/c mice; 1 mg/kg intraperitoneal", "result": "93 ± 26", "unit": "s"},
      {"measurement": "Social time", "setting": "BALB/c mice; 3 mg/kg intraperitoneal", "result": "129 ± 28", "unit": "s"},
      {"measurement": "Kp", "setting": "[1]; male, C57, brain and plasma, ip", "result": 0.892},
      {"measurement": "Tmax", "setting": "[1]; [2]", "result": 30, "unit": "min"},
      {"measurement": "Tmax", "setting": "[1]; [3]", "result": 360, "unit": "min"},
      {"measurement": "Cmax Brain", "setting": "[1]; brain tissue, mean n=3", "result": 6754, "unit": "ng/g"},
      {"measurement": "T1/2 Brain", "setting": "[1]; brain tissue, mean n=3", "result": 108, "unit": "h"},
      {"measurement": "Cmax Plasma", "setting": "[1]; plasma, mean n=3", "result": 7057, "unit": "ng/g"}
    ]},
    {"smiles": "Cc1cc(C)n2c(=O)n(CC(=O)N[C@@H](C)c3ccc(Cl)cc3)ncc12", "note": "[Compound I-22, (S)—N-1-(4-chlorophenyl)ethyl-2-(6,8-dimethyl-4-oxopyrrolo[1,2-d][1,2,4]triazin-3(4H)yl)acetamide]", "values": [
      {"measurement": "EC50", "setting": "GPR139", "result": "56 ± 11", "unit": "nM"}
    ]},
    {"smiles": "C[C@H](NC(=O)Cn1ncc2cccn2c1=O)c1ccc(F)cc1", "note": "[Compound I-1]", "values": [
      {"measurement": "half-life", "setting": "[1]; [4]", "result": 19.2, "unit": "min"},
      {"measurement": "Tmax", "setting": "[1]; [2]", "result": 30, "unit": "min"},
      {"measurement": "Cmax", "setting": "[1]; male, plasma, mean n=3", "result": 700, "unit": "ng/g"},
      {"measurement": "half-life", "setting": "[1]; [5]", "result": 42, "unit": "min"},
      {"measurement": "Tmax", "setting": "[1]; [3]", "result": 30, "unit": "min"},
      {"measurement": "Cmax Brain", "setting": "[1]; brain tissue, mean n=3", "result": 713, "unit": "ng/g"}
    ]},
    {"smiles": "C[C@H](NC(=O)Cn1ncc2cccn2c1=O)c1ccc(C(F)(F)F)cc1", "note": "[Compound I-32, (S)-2-(4-oxopyrrolo[1,2-d][1,2,4]triazin-3(4H)yl)-N-(1-(4-(trifluoromethyl)phenyl)ethyl)acetamide]", "values": [
      {"measurement": "half-life", "setting": "[1]; [4]", "result": 31.8, "unit": "min"},
      {"measurement": "Tmax", "setting": "[1]; [2]", "result": 30, "unit": "min"},
      {"measurement": "Cmax", "setting": "[1]; male, plasma, mean n=3", "result": 868, "unit": "ng/g"},
      {"measurement": "half-life", "setting": "[1]; [5]", "result": 31.2, "unit": "min"},
      {"measurement": "Tmax", "setting": "[1]; [3]", "result": 30, "unit": "min"},
      {"measurement": "Cmax Brain", "setting": "[1]; brain tissue, mean n=3", "result": 1264, "unit": "ng/g"}
    ]},
    {"smiles": "CC(C)[C@H](NC(=O)Cn1ncc2cccn2c1=O)c1ccc(F)cc1", "note": "[Compound I-37, (S)—N-(1-(4-fluorophenyl)-2-methylpropyl)-2-(4-oxopyrrolo[1,2-d][1,2,4]triazin-3(4H)yl)acetamide]", "values": [
      {"measurement": "Emax", "setting": "GPR139", "result": 92, "unit": "%"},
      {"measurement": "EC50", "setting": "GPR139", "result": 120, "unit": "nM"}
    ]},
    {"smiles": "C[C@H](NC(=O)Cn1ncc2cccn2c1=O)c1ccc(OC(F)(F)F)cc1", "note": "[Compound I-5, (S)-2-(4-oxopyrrolo[1,2-d][1,2,4]triazin-3(4H)yl)-N-(1-(4-(trifluoromethoxy)phenyl)ethyl)acetamide]", "values": [
      {"measurement": "One-way analysis of variance (social time)", "setting": "BALB/c mice; 0.3 mg/kg intraperitoneal", "result": "No difference"},
      {"measurement": "Social time", "setting": "BALB/c mice; 0.3 mg/kg intraperitoneal", "result": "107 ± 15", "unit": "s"},
      {"measurement": "One-way analysis of variance (social time)", "setting": "BALB/c mice; 1 mg/kg intraperitoneal", "result": "No difference"},
      {"measurement": "Social time", "setting": "BALB/c mice; 1 mg/kg intraperitoneal", "result": "103 ± 17", "unit": "s"},
      {"measurement": "Social time", "setting": "BALB/c mice; 3 mg/kg intraperitoneal", "result": "129 ± 12", "unit": "s"},
      {"measurement": "Effect on social disorders in mice", "setting": "BALB/c mice; dose of 3 mg/kg", "result": "significant improvement effect"}
    ]},
    {"smiles": "Cc1ccc([C@H](C)NC(=O)Cn2ncc3c(C)cc(C)n3c2=O)cc1", "note": "[Compound I-18, (S)-2-(6,8-dimethyl-4-oxopyrrolo[1,2-d][1,2,4]triazin-3(4H)yl)-N-(1-(p-tolyl)ethyl)acetamide]", "values": [
      {"measurement": "EC50", "setting": "GPR139", "result": "93 ± 15", "unit": "nM"}
    ]}
  ]
}
